Values after ≈ are worked out from the molar mass of the structure shown. Read-outs that look alike come from different tables or passages of the source.
Key:
[1] = Process temperature development study (60°C dissolution, cooling to 25°C); assay type: physicochemical
Method: […]. […] The final volume of each formulation was 5 mL. […] Each sample was mixed thoroughly and agitated overnight at 60° C. Rapid cooling and step-wise cooling from 60° C. to 25° C. was performed. HPLC analysis was performed on samples taken after overnight incubation and after cooling to 25° C. Prior to HPLC analysis, formulations were filtered via syringe through a 0.45 μm PVDF filter.

[2] = Co-solvent and surfactant effects on pirfenidone saturation solubility; assay type: physicochemical; conditions: thermodynamic from solid;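 note: samples equilibrated by overnight agitation at ambient temperature, with solubility taken from the supernatant after undissolved solid was removed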
Method: Each sample was agitated at ambient temperature overnight. The samples were visually inspected and appearance recorded. Samples were centrifuged to sediment any un-dissolved material and the supernatant withdrawn via syringe through a 0.22 μm PVDF filter. […] The remaining filtered sample was split into three equal volumes in glass vials and placed at 25° C./60 RH, 40° C./75 RH and refrigeration. Samples are wrapped in aluminum foil to reduce light exposure. After the first night of incubation, samples are briefly visually inspected for any signs of discoloration or precipitate formation.

[3] = Pharmacokinetics and lung-tissue distribution after oral gavage or intratracheal aerosol; assay type: in vivo, Sprague-Dawley rats; conditions: for half-life / Cmax / AUC(0-t): Sprague-Dawley, rat, inhaled or intranasal; for AUC(0-t): read-out: Plasma AUC0-6 hrs; for Lung Cmax: immediate post-dose calculated from direct-lung delivered dose

## Cc1ccc(=O)n(-c2ccccc2)c1 [pirfenidone, 5-methyl-1-phenyl-2-(1H)-pyridone]
[1]; heated to 60°C, 5 mM sodium phosphate pH 6.5 with ethanol, propylene glycol and/or polysorbate 80
  full dissolution concentration: ≥ 50 mg/mL
[1]; slow step-wise cooling 60 to 25°C, for several hours before re-crystallization
  concentration staying in solution: about 50 mg/mL
[2]; aqueous co-solvent/surfactant solvent system, pH 4.4, aqueous with cosolvent or surfactant or cyclodextrin, 4% Gly, 0.04% PS80, 96.0% citrate buffer (10 mM), pH 4.4
  solubility: 17.6 mg/mL (≈ 95 mM)
[2]; aqueous co-solvent/surfactant solvent system, pH 4.5, aqueous with cosolvent or surfactant or cyclodextrin, 4% EtOH, 0.04% PS80, 96.0% citrate buffer (10 mM), pH 4.5
  solubility: 21.9 mg/mL (≈ 118 mM)
[2]; aqueous co-solvent/surfactant solvent system, pH 4.5, aqueous with cosolvent or surfactant or cyclodextrin, 4% EtOH, 0.1% CPB, 95.9% citrate buffer (10 mM), pH 4.5
  solubility: 20.4 mg/mL (≈ 110 mM)
[2]; aqueous co-solvent/surfactant solvent system, pH 4.5, aqueous with cosolvent or surfactant or cyclodextrin, 8% PG, 0.04% PS80, 92.0% citrate buffer (10 mM), pH 4.5
  solubility: 23.2 mg/mL (≈ 125 mM)
[2]; aqueous co-solvent/surfactant solvent system, pH 4.5, aqueous with cosolvent or surfactant or cyclodextrin, 8% PG, 0.1% CPB, 91.9% citrate buffer (10 mM), pH 4.5
  solubility: 21 mg/mL (≈ 113 mM)
[2]; aqueous co-solvent/surfactant solvent system, pH 4.6, aqueous with cosolvent or surfactant or cyclodextrin, 8% PG, 0.04% PS80, 92.0% water, pH 4.6
  solubility: 23.4 mg/mL (≈ 126 mM)
[2]; aqueous co-solvent/surfactant solvent system, pH 4.7, aqueous with cosolvent or surfactant or cyclodextrin, 4% EtOH, 0.04% PS80, 96.0% water, pH 4.7
  solubility: 22.5 mg/mL (≈ 121 mM)
[2]; aqueous co-solvent/surfactant solvent system, pH 4.9, aqueous with cosolvent or surfactant or cyclodextrin, 4% EtOH, 0.1% CPB, 95.9% water, pH 4.9
  solubility: 20.2 mg/mL (≈ 109 mM)
[2]; aqueous co-solvent/surfactant solvent system, pH 4.9, aqueous with cosolvent or surfactant or cyclodextrin, 4% Gly, 0.04% PS80, 96.0% water, pH 4.9
  solubility: 20 mg/mL (≈ 108 mM)
[2]; aqueous co-solvent/surfactant solvent system, pH 5, aqueous with cosolvent or surfactant or cyclodextrin, 8% PG, 0.1% CPB, 91.9% water, pH 5.0
  solubility: 22.3 mg/mL (≈ 120 mM)
[2]; aqueous co-solvent/surfactant solvent system, pH 5.8, aqueous with cosolvent or surfactant or cyclodextrin, 4% EtOH, 8% PG, 0.04% PS80, 88.0% water, pH 5.8
  solubility: 28.9 mg/mL (≈ 156 mM)
[2]; aqueous co-solvent/surfactant solvent system, pH 6.1, aqueous with cosolvent or surfactant or cyclodextrin, 4% EtOH, 0.1% CPB, 95.9% water, pH 6.1
  solubility: 23.9 mg/mL (≈ 129 mM)
[2]; aqueous co-solvent/surfactant solvent system, pH 6.2, aqueous with cosolvent or surfactant or cyclodextrin, 0.1% CPB, 99.9% water, pH 6.2
  solubility: 20 mg/mL (≈ 108 mM)
[2]; aqueous co-solvent/surfactant solvent system, pH 6.2, aqueous with cosolvent or surfactant or cyclodextrin, 4% EtOH, 8% PG, 88.0% water, pH 6.2
  solubility: 30 mg/mL (≈ 162 mM)
[2]; aqueous co-solvent/surfactant solvent system, pH 6.2, aqueous with cosolvent or surfactant or cyclodextrin, 8% PG, 0.1% CPB, 91.9% water, pH 6.2
  solubility: 23.4 mg/mL (≈ 126 mM)
[2]; aqueous co-solvent/surfactant solvent system, pH 6.5, aqueous with cosolvent or surfactant or cyclodextrin, 0.04% PS80, 100.0% water, pH 6.5
  solubility: 19.9 mg/mL (≈ 107 mM)
[2]; aqueous co-solvent/surfactant solvent system, pH 6.5, aqueous with cosolvent or surfactant or cyclodextrin, 4% Gly, 0.04% PS80, 96.0% water, pH 6.5
  solubility: 20.2 mg/mL (≈ 109 mM)
[2]; aqueous co-solvent/surfactant solvent system, pH 6.6, aqueous with cosolvent or surfactant or cyclodextrin, 4% EtOH, 8% PG, 0.04% PS80, 88.0% phosphate buffer (5 mM), pH 6.6
  solubility: 29.4 mg/mL (≈ 159 mM)
[2]; aqueous co-solvent/surfactant solvent system, pH 6.6, aqueous with cosolvent or surfactant or cyclodextrin, 4% EtOH, 8% PG, 88.0% phosphate buffer (5 mM), pH 6.6
  solubility: 27.2 mg/mL (≈ 147 mM)
[2]; aqueous co-solvent/surfactant solvent system, pH 6.6, aqueous with cosolvent or surfactant or cyclodextrin, 8% EtOH, 0% PG, 92% phosphate buffer (5 mM), pH 6.6
  solubility: 26.7 mg/mL (≈ 144 mM)
[2]; aqueous co-solvent/surfactant solvent system, pH 6.6, aqueous with cosolvent or surfactant or cyclodextrin, 8% PG, 0.04% PS80, 92.0% water, pH 6.6
  solubility: 23.2 mg/mL (≈ 125 mM)
[2]; aqueous co-solvent/surfactant solvent system, pH 6.7, aqueous with cosolvent or surfactant or cyclodextrin, 4% EtOH, 0.04% PS80, 96.0% water, pH 6.7
  solubility: 24.5 mg/mL (≈ 132 mM)
[2]; aqueous co-solvent/surfactant solvent system, pH 6.7, aqueous with cosolvent or surfactant or cyclodextrin, 8% EtOH, 12% PG, 80% phosphate buffer (5 mM), pH 6.7
  solubility: 37.7 mg/mL (≈ 204 mM)
[2]; aqueous co-solvent/surfactant solvent system, pH 6.8, aqueous with cosolvent or surfactant or cyclodextrin, 0% EtOH, 16% PG, 84% phosphate buffer (5 mM), pH 6.8
  solubility: 29.3 mg/mL (≈ 158 mM)
[2]; aqueous co-solvent/surfactant solvent system, pH 6.8, aqueous with cosolvent or surfactant or cyclodextrin, 2% EtOH, 16% PG, 82% phosphate buffer (5 mM), pH 6.8
  solubility: 31 mg/mL (≈ 167 mM)
[2]; aqueous co-solvent/surfactant solvent system, pH 6.8, aqueous with cosolvent or surfactant or cyclodextrin, 8% EtOH, 4% PG, 88% phosphate buffer (5 mM), pH 6.8
  solubility: 30.4 mg/mL (≈ 164 mM)
[2]; aqueous co-solvent/surfactant solvent system, pH 6.8, aqueous with cosolvent or surfactant or cyclodextrin, 8% EtOH, 8% PG, 84% phosphate buffer (5 mM), pH 6.8
  solubility: 35 mg/mL (≈ 189 mM)
[2]; aqueous co-solvent/surfactant solvent system, pH 6.8, aqueous with cosolvent or surfactant or cyclodextrin, 8% EtOH, 16% PG, 76% phosphate buffer (5 mM), pH 6.8
  solubility: 45.4 mg/mL (≈ 245 mM)
[2]; aqueous co-solvent/surfactant solvent system, pH 6.9, aqueous with cosolvent or surfactant or cyclodextrin, 4% EtOH, 16% PG, 80% phosphate buffer (5 mM), pH 6.9
  solubility: 36.8 mg/mL (≈ 199 mM)
[2]; aqueous co-solvent/surfactant solvent system, pH 6.9, aqueous with cosolvent or surfactant or cyclodextrin, 6% EtOH, 16% PG, 78% phosphate buffer (5 mM), pH 6.9
  solubility: 40.9 mg/mL (≈ 221 mM)
[2]; aqueous co-solvent/surfactant solvent system, pH 7, aqueous with cosolvent or surfactant or cyclodextrin, 6% EtOH, 12% PG, 82.0% phosphate buffer (5 mM), pH 7.0
  solubility: 34.7 mg/mL (≈ 187 mM)
[2]; aqueous co-solvent/surfactant solvent system, pH 7, aqueous with cosolvent or surfactant or cyclodextrin, 8% EtOH, 16% PG, 76.0% phosphate buffer (5 mM), pH 7.0
  solubility: 43.7 mg/mL (≈ 236 mM)
[2]; citrate buffer with co-solvent, pH 4.4, aqueous buffer, 4% Gly, 96.0% citrate buffer (10 mM), pH 4.4
  solubility: 19.8 mg/mL (≈ 107 mM)
[2]; citrate buffer with co-solvent, pH 4.4, aqueous with cosolvent or surfactant or cyclodextrin, 8% PG, 92.0% citrate buffer (10 mM), pH 4.4
  solubility: 23.2 mg/mL (≈ 125 mM)
[2]; citrate buffer with co-solvent, pH 4.5, aqueous buffer, 4% EtOH, 96.0% citrate buffer (10 mM), pH 4.5
  solubility: 22.3 mg/mL (≈ 120 mM)
[2]; citrate buffer with surfactant, pH 4.5, aqueous with cosolvent or surfactant or cyclodextrin, 0.04% PS80, 100.0% citrate buffer (10 mM), pH 4.5
  solubility: 19.1 mg/mL (≈ 103 mM)
[2]; water with co-solvent, pH 4.8, water, 4% Gly, 96.0% water, pH 4.8
  solubility: 20.1 mg/mL (≈ 109 mM)
[2]; water with co-solvent, pH 5, aqueous with cosolvent or surfactant or cyclodextrin, 8% PG, 92.0% water, pH 5.0
  solubility: 24.3 mg/mL (≈ 131 mM)
[2]; water with co-solvent, pH 5, water, 4% EtOH, 96.0% water, pH 5.0
  solubility: 22.8 mg/mL (≈ 123 mM)
[2]; water with co-solvent, pH 6.7, water, 4% Gly, 96.0% water, pH 6.7
  solubility: 20.1 mg/mL (≈ 109 mM)
[2]; water with co-solvent, pH 6.8, aqueous with cosolvent or surfactant or cyclodextrin, 8% PG, 92.0% water, pH 6.8
  solubility: 24.6 mg/mL (≈ 133 mM)
[2]; water with co-solvent, pH 6.9, water, 4% EtOH, 96.0% water, pH 6.9
  solubility: 24.3 mg/mL (≈ 131 mM)
[2]; water with surfactant, pH 4.8, aqueous with cosolvent or surfactant or cyclodextrin, 0.04% PS80, 100.0% water, pH 4.8
  solubility: 8.3 mg/mL (≈ 44.8 mM)
[3]; lung, 1 mg/kg, aerosol 1 mg/kg, read-out: Lung T1/2 α
  half-life: < 1 min
[3]; lung, 1 mg/kg, aerosol 1 mg/kg, read-out: Lung T1/2 β
  half-life: 45 min
[3]; lung, 5 mg/kg, aerosol 5 mg/kg, read-out: Lung T1/2 α
  half-life: < 1 min
[3]; lung, 5 mg/kg, aerosol 5 mg/kg, read-out: Lung T1/2 β
  half-life: 45 min
[3]; plasma, 1 mg/kg, aerosol 1 mg/kg, read-out: Plasma T1/2
  half-life: 30 min
[3]; plasma, 5 mg/kg, aerosol 5 mg/kg, read-out: Plasma T1/2
  half-life: 30 min
[3]; plasma, aerosol 1 mg/kg
  Cmax: 1100 ng/mL
  AUC(0-t): 900 ng·h/mL
[3]; plasma, aerosol 5 mg/kg
  Cmax: 7000 ng/mL
  AUC(0-t): 4500 ng·h/mL
[3]; aerosol 1 mg/kg
  Lung AUC (for time >1 μg/g): 5.2 mg·h/kg
  Lung TOE, time of exposure over 1 μg/g lung tissue: 5 min
[3]; aerosol 5 mg/kg
  Lung AUC (for time >1 μg/g): 25.4 mg·h/kg
  Lung TOE, time of exposure over 1 μg/g lung tissue: 84 min
[3]; aerosol (bolus intratracheal) 1 mg/kg
  Lung Cmax: 101 µg/g
[3]; aerosol (bolus intratracheal) 5 mg/kg
  Lung Cmax: 508 µg/g
[3]; oral 70 mg/kg
  Lung AUC (for time >1 μg/g): 4.3 mg·h/kg

Reference: US10028966B2 (Avalyn Pharma Inc., priority 2014, dated 2018)
